{
  "source": "patent US4321196A",
  "about": "“Bis-esters of methanediol with acetonides of ampicillin or amoxicillin and penicillanic acid 1,1-dioxide” (Pfizer Inc., priority 1981, dated 1982)",
  "assay": "Serum half-life comparison of Compound I with Compound II in fasted rats, and general statements on absorption and half-life",
  "type": "in vivo",
  "conditions": "20 mg/kg oral, versus Compound II (Y=H)",
  "description": "Since the object of the present invention is to provide a single well-absorbed source of ampicillin/amoxicillin and penicillanic acid 1,1-dioxide in serum, the compounds of the present invention are also evaluated by determination of the serum levels of these derived compounds in experimental animals, such as laboratory rats. The serum level results in fasted rats following the oral administration of 20 mg./kg. of 6'-(2,2-dimethyl-4-phenyl-5-imidazolidinon-1-yl)-penicillanoyloxymethyl penicillanate 1,1-dioxide (I, Y=H) are shown in Table I. In this test, 6'-(2-amino-2-phenylacetamido)penicillanoyloxymethyl penicillanate 1,1-dioxide (II, Y=H) at the same oral dosage has been used as control. The blood level of ampicillin was determined by standard plate bioassay methods, using Sarcina lutea 07A001 on Seed agar. For determination of penicillanic acid 1,1-dioxide, Pasturella 59B010 on MH agar was employed. It will be noted there is an approximately 50% improvement in the half-life of Compound I (Y=H) over Compound II (Y=H).",
  "data": [
    {"molecule": "CC1(C)S[C@@H]2[C@H](N3C(=O)[C@@H](c4ccccc4)NC3(C)C)C(=O)N2[C@H]1C(=O)OCOC(=O)[C@@H]1N2C(=O)C[C@H]2S(=O)(=O)C1(C)C", "note": "[Compound I (Y = H), 6'-(2,2-Dimethyl-4-phenyl-5-imidazolidinon-1-yl)-penicillanoyloxymethyl Penicillanate 1,1-Dioxide]", "values": [
      {"measurement": "Improvement in the half-life over Compound II (Y=H)", "result": "approximately 50%"}
    ]}
  ]
}
